IC50 and inhibition data for 21 compounds are collected here from patent US12404279B2, “Deubiquitinase inhibitors and methods of use thereof” (Molecure S.A., priority 2021, dated 2025).

Structures can show the parent of a compound that is named as a salt.

full-length USP7, sequence (Q93009 whole entry): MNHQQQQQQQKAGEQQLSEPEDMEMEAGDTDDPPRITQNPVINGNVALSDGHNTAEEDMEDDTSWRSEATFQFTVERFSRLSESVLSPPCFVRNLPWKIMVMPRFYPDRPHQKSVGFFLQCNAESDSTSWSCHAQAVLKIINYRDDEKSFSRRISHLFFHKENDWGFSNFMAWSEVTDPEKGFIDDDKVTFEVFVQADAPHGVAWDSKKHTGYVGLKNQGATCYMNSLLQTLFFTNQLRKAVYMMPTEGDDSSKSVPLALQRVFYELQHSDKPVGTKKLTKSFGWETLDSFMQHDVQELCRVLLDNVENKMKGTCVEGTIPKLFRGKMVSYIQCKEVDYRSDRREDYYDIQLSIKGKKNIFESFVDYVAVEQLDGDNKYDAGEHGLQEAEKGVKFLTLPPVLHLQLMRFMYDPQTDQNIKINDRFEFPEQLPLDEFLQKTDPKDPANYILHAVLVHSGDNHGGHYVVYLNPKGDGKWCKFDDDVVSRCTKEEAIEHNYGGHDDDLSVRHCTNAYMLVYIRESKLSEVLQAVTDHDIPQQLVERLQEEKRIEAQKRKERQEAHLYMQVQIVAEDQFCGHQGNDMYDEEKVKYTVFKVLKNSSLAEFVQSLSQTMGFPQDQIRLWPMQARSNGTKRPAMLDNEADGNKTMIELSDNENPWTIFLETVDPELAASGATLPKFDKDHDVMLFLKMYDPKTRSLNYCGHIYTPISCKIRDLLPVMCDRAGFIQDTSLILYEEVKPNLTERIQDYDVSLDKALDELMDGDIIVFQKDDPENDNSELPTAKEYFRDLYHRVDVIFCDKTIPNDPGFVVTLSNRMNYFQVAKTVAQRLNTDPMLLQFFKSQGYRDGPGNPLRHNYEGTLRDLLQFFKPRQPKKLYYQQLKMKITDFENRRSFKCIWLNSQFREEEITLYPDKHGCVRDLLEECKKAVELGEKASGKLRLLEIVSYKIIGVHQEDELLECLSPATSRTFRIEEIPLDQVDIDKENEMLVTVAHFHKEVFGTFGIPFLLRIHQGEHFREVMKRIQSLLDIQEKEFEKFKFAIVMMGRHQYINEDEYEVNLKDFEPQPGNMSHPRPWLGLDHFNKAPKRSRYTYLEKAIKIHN

The target in one assay is full-length USP7 (Homo sapiens (Human), UniProt Q93009). The assay can be described thus: Enzymatic assay to determine IC50 of USP7 inhibitors (Ubiquitin-Rhodamine 110 cleavage). The format is biochemical. The following applies: 0.5 nM USP7, 0.5 μM Ubiquitin-Rhodamine 110, 45 min at 37° C. Summed up:
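Enzyme: 0.5 nM full-length USP7 in HEPES pH 7.5 buffer with NaCl, DTT, BSA and Tween20, given 15 min at room temperature with DTT before compounds were added.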
`Cc1c(Cl)cc(-c2ccnc3cc(CN4C(=O)C5C(C4=O)C5(C)C)sc23)n1C[C@@H]1CNCCO1` (stereo partly drawn) [Example 162, 3-((7-(4-chloro-5-methyl-1-(((S)-morpholin-2-yl)methyl)-1H-pyrrol-2-yl)thieno[3,2-b]pyridin-2-yl)methyl)-6,6-dimethyl-3-azabicyclo[3.1.0]hexane-2,4-dione hydrochloride]: the IC50 is less than 0.5 µM.
With `Cc1cc(C(F)(F)F)nc(-c2ccnc3cc(CN4C(=O)C5C(C4=O)C5(C)C)sc23)c1C(=O)N1C[C@@H]2CCN[C@@H]2C1` (stereo partly drawn) [Example 163, 6,6-dimethyl-3-((7-(4-methyl-3-((3aS,6aS)-octahydropyrrolo[3,4-b]pyrrole-5-carbonyl)-6-(trifluoromethyl)pyridin-2-yl)thieno[3,2-b]pyridin-2-yl)methyl)-3-azabicyclo[3.1.0]hexane-2,4-dione hydrochloride], the IC50 lay within 0.5 to 1 µM.
Still for that read-out and setting: to `Cc1c([N+](=O)[O-])cc(-c2ccnc3cc(CN4C(=O)C5C(C4=O)C5(C)C)sc23)n1C[C@H]1CNCCO1` (stereo partly drawn) [Example 167, 6,6-dimethyl-3-((7-(5-methyl-1-(((R)-morpholin-2-yl)methyl)-4-nitro-1H-pyrrol-2-yl)thieno[3,2-b]pyridin-2-yl)methyl)-3-azabicyclo[3.1.0]hexane-2,4-dione hydrochloride] belongs less than 0.5 µM.
Same read-out and setting: to `CN[C@@H]1CN(C(=O)c2c(C)cc(C(F)(F)F)nc2-c2ccnc3cc(CN4C(=O)C5C(C4=O)C5(C)C)sc23)C[C@H]1C` (stereo partly drawn) [Example 168, 6,6-dimethyl-3-((7-(4-methyl-3-((3R,4S)-3-methyl-4-(methylamino)pyrrolidine-1-carbonyl)-6-(trifluoromethyl)pyridin-2-yl)thieno[3,2-b]pyridin-2-yl)methyl)-3-azabicyclo[3.1.0]hexane-2,4-dione hydrochloride] belongs less than 0.5 µM; to `Cc1cc(C(F)(F)F)nc(-c2ccnc3cc(CN4C(=O)C5C(C4=O)C5(C)C)sc23)c1C(=O)N1C[C@@H](N)[C@@H](F)C1` (stereo partly drawn) [Example 169, 3-((7-(3-((3R,4S)-3-amino-4-fluoropyrrolidine-1-carbonyl)-4-methyl-6-(trifluoromethyl)pyridin-2-yl)thieno[3,2-b]pyridin-2-yl)methyl)-6,6-dimethyl-3-azabicyclo[3.1.0]hexane-2,4-dione hydrochloride], less than 0.5 µM; to `Cc1cc(C(F)(F)F)nc(-c2ccnc3cc(CN4C(=O)C5C(C4=O)C5(C)C)sc23)c1C(=O)N1C[C@H](N)[C@@H](F)C1` (stereo partly drawn) [Example 170, 3-((7-(3-((3S,4S)-3-amino-4-fluoropyrrolidine-1-carbonyl)-4-methyl-6-(trifluoromethyl)pyridin-2-yl)thieno[3,2-b]pyridin-2-yl)methyl)-6,6-dimethyl-3-azabicyclo[3.1.0]hexane-2,4-dione hydrochloride], less than 0.5 µM.
In the case of `Cc1cc(C(F)(F)F)nc(-c2ccnc3cc(CN4C(=O)C5C(C4=O)C5(C)C)sc23)c1C(=O)N1C[C@@H](N)C2(CC2)C1` (stereo partly drawn) [Example 173, 3-((7-(3-((S)-7-amino-5-azaspiro[2.4]heptane-5-carbonyl)-4-methyl-6-(trifluoromethyl)pyridin-2-yl)thieno[3,2-b]pyridin-2-yl)methyl)-6,6-dimethyl-3-azabicyclo[3.1.0]hexane-2,4-dione hydrochloride], the IC50 was less than 0.5 µM.
As to `Cc1cc(Cl)cc(-c2ccnc3cc(CN4C(=O)C5C(C4=O)C5(C)C)sc23)c1NC1CCNC1` (stereo not drawn) [Example 175, 3-((7-(5-chloro-3-methyl-2-(pyrrolidin-3-ylamino)phenyl)thieno[3,2-b]pyridin-2-yl)methyl)-6,6-dimethyl-3-azabicyclo[3.1.0]hexane-2,4-dione hydrochloride], the IC50 is less than 0.5 µM.
For the compound `Cc1cc(Cl)cc(-c2ccnc3cc(CC4NCCNC4=O)sc23)c1O[C@H]1CCCNC1` (stereo partly drawn) [Example 178, 3-((7-(5-chloro-3-methyl-2-(((S)-piperidin-3-yl)oxy)phenyl)thieno[3,2-b]pyridin-2-yl)methyl)piperazin-2-one hydrochloride], the IC50 was less than 0.5 µM.
The same measure, in the same setting: to `Cc1cc(Cl)cc(-c2ccnc3cc(CC4C(=O)NCC4O)sc23)c1O[C@H]1CCCNC1` (stereo partly drawn) [Example 179, 3-((7-(5-chloro-3-methyl-2-(((S)-piperidin-3-yl)oxy)phenyl)thieno[3,2-b]pyridin-2-yl)methyl)-4-hydroxypyrrolidin-2-one 2,2,2-trifluoroacetate] belongs less than 0.5 µM; to “N-(2-(2-((6,6-dimethyl-2,4-dioxo-3-azabicyclo[3.1.0]hexan-3-yl)methyl)thieno[3,2-b]pyridin-7-yl)-4-methyl-6-(trifluoromethyl)pyridin-3-yl)azetidine-3-carboxamide 2,2,2-trifluoroacetate [Example 28]”, less than 0.5 µM; to “ethyl 5-(2-((6,6-dimethyl-2,4-dioxo-3-azabicyclo[3.1.0]hexan-3-yl)methyl)thieno[3,2-b]pyridin-7-yl)-2-methyl-1-(((S)-morpholin-2-yl)methyl)-1H-pyrrole-3-carboxylate 2,2,2-trifluoroacetate [Example 148]”, 1 to 10 µM.

Staying with this assay, now noted: at 1 μM of the test compound; given where IC50 not determined yet; read-out: percent value of inhibition of USP7 activity.
`CC1(C)C2C(=O)N(Cc3cc4nccc(-c5cc(Cl)cnc5O[C@H]5CCCNC5)c4s3)C(=O)C21` (stereo partly drawn) [Example 161, 3-((7-(5-chloro-2-(((S)-piperidin-3-yl)oxy)pyridin-3-yl)thieno[3,2-b]pyridin-2-yl)methyl)-6,6-dimethyl-3-azabicyclo[3.1.0]hexane-2,4-dione dihydrochloride]: the inhibition at 1 µM was 50 to 70%.
Regarding `CC1(C)C2C(=O)N(Cc3cc4nccc(-c5cc(Cl)cnc5O[C@H]5CCNC5)c4s3)C(=O)C21` (stereo partly drawn) [Example 164, 3-((7-(5-chloro-2-(((S)-pyrrolidin-3-yl)oxy)pyridin-3-yl)thieno[3,2-b]pyridin-2-yl)methyl)-6,6-dimethyl-3-azabicyclo[3.1.0]hexane-2,4-dione dihydrochloride], the inhibition at 1 µM is less than 20%.
Regarding `Cc1cc(C(F)(F)F)nc(-c2ccnc3cc(CN4C(=O)C5C(C4=O)C5(C)C)sc23)c1CC1NCCNC1=O` (stereo not drawn) [Example 165, 6,6-dimethyl-3-((7-(4-methyl-3-((3-oxopiperazin-2-yl)methyl)-6-(trifluoromethyl)pyridin-2-yl)thieno[3,2-b]pyridin-2-yl)methyl)-3-azabicyclo[3.1.0]hexane-2,4-dione hydrochloride], the inhibition at 1 µM was 20 to 49%.
Regarding `CC1(C)C2C(=O)N(Cc3cc4nccc(-c5cc(C(F)(F)F)cnc5CC5NCCNC5=O)c4s3)C(=O)C21` (stereo not drawn) [Example 166, 6,6-dimethyl-3-((7-(2-((3-oxopiperazin-2-yl)methyl)-5-(trifluoromethyl)pyridin-3-yl)thieno[3,2-b]pyridin-2-yl)methyl)-3-azabicyclo[3.1.0]hexane-2,4-dione hydrochloride], the inhibition at 1 µM is less than 20%.
`Cc1cc(C(F)(F)F)nc(-c2ccnc3cc(CN4C(=O)C5C(C4=O)C5(C)C)sc23)c1C(=O)N1C[C@@H](F)[C@@H](N)C1` (stereo partly drawn) [Example 171, 3-((7-(3-((3S,4R)-3-amino-4-fluoropyrrolidine-1-carbonyl)-4-methyl-6-(trifluoromethyl)pyridin-2-yl)thieno[3,2-b]pyridin-2-yl)methyl)-6,6-dimethyl-3-azabicyclo[3.1.0]hexane-2,4-dione hydrochloride]: the inhibition at 1 µM lay in the range of 50 to 70%.
As for `Cc1cc(C(F)(F)F)nc(-c2ccnc3cc(CN4C(=O)C5C(C4=O)C5(C)C)sc23)c1C(=O)N1C[C@@H](C)[C@H](N(C)C)C1` (stereo partly drawn) [Example 172, 3-((7-(3-((3S,4R)-3-(dimethylamino)-4-methylpyrrolidine-1-carbonyl)-4-methyl-6-(trifluoromethyl)pyridin-2-yl)thieno[3,2-b]pyridin-2-yl)methyl)-6,6-dimethyl-3-azabicyclo[3.1.0]hexane-2,4-dione hydrochloride], the inhibition at 1 µM was greater than 70%.
On to `CN[C@H]1CCN(C(=O)c2c(C)cc(C(F)(F)F)nc2-c2ccnc3c(F)c(CN4C(=O)C5C(C4=O)C5(C)C)sc23)C1` (stereo partly drawn) [Example 174, 3-((3-fluoro-7-(4-methyl-3-((S)-3-(methylamino)pyrrolidine-1-carbonyl)-6-(trifluoromethyl)pyridin-2-yl)thieno[3,2-b]pyridin-2-yl)methyl)-6,6-dimethyl-3-azabicyclo[3.1.0]hexane-2,4-dione hydrochloride], for which the inhibition at 1 µM is 50 to 70%.
Turning to `Cc1c(N)cc(-c2ccnc3cc(CN4C(=O)C5C(C4=O)C5(C)C)sc23)n1C[C@@H]1CNCCO1` (stereo partly drawn) [Example 176, 3-((7-(4-amino-5-methyl-1-(((S)-morpholin-2-yl)methyl)-1H-pyrrol-2-yl)thieno[3,2-b]pyridin-2-yl))methyl)-6,6-dimethyl-3-azabicyclo[3.1.0]hexane-2,4-dione hydrochloride], the inhibition at 1 µM is less than 20%.
`Cc1c(N(C)C)cc(-c2ccnc3cc(CN4C(=O)C5C(C4=O)C5(C)C)sc23)n1C[C@@H]1CNCCO1` (stereo partly drawn) [Example 177, 3-((7-(4-(dimethylamino)-5-methyl-1-(((S)-morpholin-2-yl)methyl)-1H-pyrrol-2-yl)thieno[3,2-b]pyridin-2-yl)methyl)-6,6-dimethyl-3-azabicyclo[3.1.0]hexane-2,4-dione hydrochloride]: the inhibition at 1 µM was less than 20%.

Usually IC50 stands for the concentration at which inhibition is half-maximal. In general, inhibition refers to the change of the read-out against control, counted positive when it falls.
